Source: patent publication US20030212015A1, “Specific modulation of Th1/Th2 cytokine expression by ribavirin in activated T-lymphocytes” (priority 1996, published 2003)

Columns and labels:
Assay type in all cases: cell-based, human
IL-2 = assay: Extracellular IL-2 levels in PMA/ionomycin-activated T cells (ELISA or CTLL-2 bioassay)
Description: (§1) Peripheral blood mononuclear cells (PBMCs) were isolated from the buffy coat following Ficoll-Hypaque density gradient centrifugation of 60 ml blood from healthy donors. T-cells were then purified from the PBMCs using Lymphokwik lymphocyte isolation reagent specific for T-cells (LK-25T, One Lambda, Canoga Park Calif.). An average yield of 40-60×10^6 T-cells were then incubated overnight at 37° C. in 20-30 ml RPMI-AP5 (RPMI-1640 medium (ICN, Costa Mesa, Calif.) containing 20 mM HEPES buffer, pH 7.4, 5% autologous plasma, 1% L-glutamine, 1% penicillin/streptomycin and 0.05% 2-mercaptoethanol) to remove any contaminating adherent cells. In all experiments, T-cells were washed with RPMI-AP5 and then plated on 96-well microtitre plates at a cell concentration of 1×10^6 cells/ml.
(§2) T-cells were activated by the addition of 500 ng ionomycin and 10 ng phorbol 12-myristate 13-acetate (PMA) (Calbiochem, La Jolla, Calif.) and incubated for 48-72 h at 37° C. […]
(§3) Cell-derived human cytokine concentrations were determined in cell supernatants from each microplate. Activation-induced changes in interleukin-2 (IL-2) levels were determined using a commercially available ELISA kit (R & D systems Quantikine kit, Minneapolis, Minn.) or by bioassay using the IL-2-dependent cell line, CTLL-2 (ATCC, Rockville, Md.). […]

TNFα = assay: Extracellular TNFα levels in PMA/ionomycin-activated T cells (ELISA)
Description: as §1, §2, §3

IL-4 = assay: Extracellular IL-4 levels in PMA/ionomycin-activated T cells (ELISA)
Description: as §1, §2, §3

IL-2 mRNA = IL-2 mRNA in PMA/ionomycin-activated T cells (RT-PCR); conditions: FIG. 3
Description: (§4) T-cells were activated by the addition of 500 ng ionomycin and 10 ng phorbol 12-myristate 13-acetate (PMA) (Calbiochem, La Jolla, Calif.) and incubated for 48-72 h at 37° C. PMA/ionomycin-activated T-cells were treated with 0.5-50 μM Ribavirin or with 250-10000 U/ml of a control antiviral, interferon-alpha (Accurate, Westbury, N.Y.) immediately following activation and re-treated 24 h later. T-cells from each plate were used for immunofluorescence analysis and the supernatants used for extracellular cytokine measurements. Following activation, 900 μl cell supernatant from each microplate was transferred to another microplate for analysis of cell-derived cytokine production. The cells are then used in immunofluorescence analyses for intracellular cytokine levels and cytokine receptor expression. […]
(§5) The PCR reaction was performed using GeneAmp PCR kit (Perkin-Elmer Cetus, Foster City, Calif.). […] PCR products were analyzed on 2% agarose gel containing ethidium bromide. […] Equivalent loading was assessed following hybridization with a probe generated from pHE7 sense primer. Washed blots were then analyzed using Phosphorlmager.

IL-4 mRNA = IL-4 mRNA in PMA/ionomycin-activated T cells (RT-PCR); conditions: FIG. 3
Description: as §4, §5

IFNγ mRNA = IFNγ mRNA in PMA/ionomycin-activated T cells (RT-PCR); conditions: FIG. 3
Description: as §4, §5

IL-2 (CD25) receptor = assay: Cell surface IL-2 receptor expression in activated T cells (FACS); conditions: compared to control activated T cells, FIG. 4
Description: as §4, with “production.” for “production. The cells are then used in immunofluorescence analyses for intracellular cytokine levels and cytokine receptor expression.”
(§6) For direct staining with fluorescence-conjugated antibodies to cell surface antigens, the cells were washed twice with isotonic saline solution, pH 7.4 (Becton Dickinson, Mansfield, Mass.) and resuspended in 50 μl isotonic saline solution and split into two samples. One sample aliquot was co-stained with either PE-anti CD25/FITC-anti CD4 or PE-rat anti mouse IgG+anti-CDw124/FITC-anti CD4 mAb and non-specific fluorescence was assessed by staining the second aliquot with PE/FITC-labeled isotype-matched control monoclonal antibody. All fluorescence-labeled monoclonal antibodies were obtained from Becton Dickinson (San Jose, Calif.) except for anti-CDw124 which was obtained from Pharmingen, San Diego, Calif. […]

IL-4 (CDw124) receptor = assay: Cell surface IL-4 receptor expression in activated T cells (FACS); conditions: compared to control activated T cells, FIG. 4
Description: as §4, with “production.” for “production. The cells are then used in immunofluorescence analyses for intracellular cytokine levels and cytokine receptor expression.”
as §6

IL-2 in CD4+ T cells = assay: Intracellular IL-2 expression in activated CD4+ T cells (two-color flow cytometry); conditions: PMA/ionomycin alone 82%, one experiment, FIG. 5
Description: (§7) T-cells were activated by the addition of 500 ng ionomycin and 10 ng phorbol 12-myristate 13-acetate (PMA) (Calbiochem, La Jolla, Calif.) and incubated for 48-72 h at 37° C. PMA/ionomycin-activated T-cells were treated with 0.5-50 μM Ribavirin or with 250-10000 U/ml of a control antiviral, interferon-alpha (Accurate, Westbury, N.Y.) immediately following activation and re-treated 24 h later. T-cells from each plate were used for immunofluorescence analysis and the supernatants used for extracellular cytokine measurements. Following activation, 900 μl cell supernatant from each microplate was transferred to another microplate for analysis of cell-derived cytokine production. The cells are then used in immunofluorescence analyses for intracellular cytokine levels and cytokine receptor expression.
(§8) For analyses of the intracellular expression of IL-2 in CD4^+ and CD8^+ T cell subsets, T cells were first treated for the last 4 h of 48-72 h activation with 10 μg Brefeldin A (Gibco BRL, Gaithersburg, Md.) to minimize secretion of newly synthesized IL-2 into the extracellular milieu. […]
(§9) We examined whether the effect of Ribavirin on IL-2 expression was specific to CD4^+ or CD8^+ T cells. Intracellular IL-2 expression in fixed and Permeabilized activated T cells was determined by two-color flow cytometry using fluorescence-labeled antibodies to CD4 or CD8 and to IL-2. […]

IL-2 in CD8+ T cells = assay: Intracellular IL-2 expression in activated CD8+ T cells (two-color flow cytometry); conditions: PMA/ionomycin alone 81%, one experiment, FIG. 5
Description: as §7, §8, §9

[1] = 2, 5 and 10 μM following T cell activation
[2] = range 250-10000 U/ml, dose-dependent, compared to untreated activated T cells

NC(=O)c1ncn([C@@H]2O[C@H](CO)[C@@H](O)[C@H]2O)n1 [Ribavirin, 1-β-D-ribofuranosyl-1,2,4-triazole-3-carboxamide]
maximal augmentation of activated levels of IL-2 (IL-2; at 5 μM (dose range 0.5-50 μM), PMA/ionomycin-activated T cells, 48-72 h, representative experiment, FIG. 1): 30% | maximal augmentation of activated levels of TNFα (TNFα; at 20 μM (dose range 0.5-50 μM), PMA/ionomycin-activated T cells, 48-72 h, representative experiment, FIG. 1): 36% | inhibition at 2 µM (IL-4; Homo sapiens, T-cell, at 2 μM, read-out: peak inhibition of activated levels of IL-4): 74% | effect on IL-2 mRNA (IL-2 mRNA; [1]): elevates | effect on IL-4 mRNA (IL-4 mRNA; [1]): decreases | effect on IFNγ mRNA (IFNγ mRNA; [1]): has no effect | effect on activated levels of IL-2 receptor (IL-2 (CD25) receptor; 1-50 μM): little effect | effect on activated levels of IL-4 receptor (IL-4 (CDw124) receptor; 1-50 μM): little effect | percentage of CD4+ T cells expressing IL-2 (IL-2 in CD4+ T cells; 10 μM): 91% | percentage of CD8+ expressing IL-2 (IL-2 in CD8+ T cells; 10 μM): 91%

interferon-α
maximal inhibition of IL-2 expression (IL-2; [2]): 33% | maximal inhibition of TNFα expression (TNFα; [2]): 38% | maximal increase of extracellular IL-4 (IL-4; 10000 U/ml): 26% | effect on IL-2 mRNA (IL-2 mRNA; 1000, 2000 and 5000 U/ml): decreases | effect on IL-4 mRNA (IL-4 mRNA; 1000, 2000 and 5000 U/ml): increases | effect on IFNγ mRNA (IFNγ mRNA; 1000, 2000 and 5000 U/ml): decreases | effect on IL-2 receptor expression (IL-2 (CD25) receptor; 250-10000 U/ml, dose-dependent): decreased | effect on IL-4 receptor expression (IL-4 (CDw124) receptor; 250-10000 U/ml, dose-dependent): increased | percentage of IL-2-expressing CD4+ cells (IL-2 in CD4+ T cells; 5000 U/ml): 81% | percentage of IL-2-expressing CD8+ cells (IL-2 in CD8+ T cells; 5000 U/ml): 71%
